Data: ChEMBL document CHEMBL1201862, “PubChem BioAssay data set” (2004)
Activity calls are given as the source filed them.

Tests used:
[1] = target: X-box-binding protein 1 (Homo sapiens, UniProt P17861); type: functional, Cricetulus griseus;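 note: confirmatory dose-response counter-screen serving a CHOP assay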
[2] = target: T1, Protein RecA (Mycobacterium tuberculosis, UniProt P9WHJ3); assay: Fluorescence Cell-Free Homogeneous Dose Retest to Identify Inhibitors of RecA-Intein Splicing Activity. [Related pubchem assays (depositor defined):AID2097, AID2223, AID489010, AID492950]; type: functional
T1 sequence (P9WHJ3 whole entry): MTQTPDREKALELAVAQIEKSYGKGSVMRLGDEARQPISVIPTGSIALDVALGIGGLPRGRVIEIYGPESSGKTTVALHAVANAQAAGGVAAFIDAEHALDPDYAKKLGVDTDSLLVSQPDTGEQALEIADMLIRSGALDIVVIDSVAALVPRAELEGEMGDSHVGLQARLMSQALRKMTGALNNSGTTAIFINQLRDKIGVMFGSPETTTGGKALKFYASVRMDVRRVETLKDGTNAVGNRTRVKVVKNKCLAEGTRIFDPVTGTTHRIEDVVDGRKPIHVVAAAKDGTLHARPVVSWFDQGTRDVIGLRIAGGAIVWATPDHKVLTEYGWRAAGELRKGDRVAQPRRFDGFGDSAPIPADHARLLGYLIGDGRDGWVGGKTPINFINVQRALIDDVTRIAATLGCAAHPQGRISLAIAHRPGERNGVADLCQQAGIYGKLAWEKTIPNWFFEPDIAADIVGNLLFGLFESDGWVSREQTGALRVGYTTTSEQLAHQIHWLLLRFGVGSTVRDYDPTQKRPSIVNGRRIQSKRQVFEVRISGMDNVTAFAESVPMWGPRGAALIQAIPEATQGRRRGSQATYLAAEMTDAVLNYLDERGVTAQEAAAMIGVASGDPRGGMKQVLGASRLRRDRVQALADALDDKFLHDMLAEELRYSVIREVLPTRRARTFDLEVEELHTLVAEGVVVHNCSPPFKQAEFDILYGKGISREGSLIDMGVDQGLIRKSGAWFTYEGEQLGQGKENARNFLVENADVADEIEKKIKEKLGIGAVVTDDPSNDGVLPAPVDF

[3] = target: T2, Replicative DNA helicase DnaB (Mycobacterium tuberculosis, UniProt P9WMR3); assay: DnaB intein splicing inhibitors, dose response, biochemical, cell-free fluorescence (AID 449749); type: functional
T2 sequence (P9WMR3 whole entry): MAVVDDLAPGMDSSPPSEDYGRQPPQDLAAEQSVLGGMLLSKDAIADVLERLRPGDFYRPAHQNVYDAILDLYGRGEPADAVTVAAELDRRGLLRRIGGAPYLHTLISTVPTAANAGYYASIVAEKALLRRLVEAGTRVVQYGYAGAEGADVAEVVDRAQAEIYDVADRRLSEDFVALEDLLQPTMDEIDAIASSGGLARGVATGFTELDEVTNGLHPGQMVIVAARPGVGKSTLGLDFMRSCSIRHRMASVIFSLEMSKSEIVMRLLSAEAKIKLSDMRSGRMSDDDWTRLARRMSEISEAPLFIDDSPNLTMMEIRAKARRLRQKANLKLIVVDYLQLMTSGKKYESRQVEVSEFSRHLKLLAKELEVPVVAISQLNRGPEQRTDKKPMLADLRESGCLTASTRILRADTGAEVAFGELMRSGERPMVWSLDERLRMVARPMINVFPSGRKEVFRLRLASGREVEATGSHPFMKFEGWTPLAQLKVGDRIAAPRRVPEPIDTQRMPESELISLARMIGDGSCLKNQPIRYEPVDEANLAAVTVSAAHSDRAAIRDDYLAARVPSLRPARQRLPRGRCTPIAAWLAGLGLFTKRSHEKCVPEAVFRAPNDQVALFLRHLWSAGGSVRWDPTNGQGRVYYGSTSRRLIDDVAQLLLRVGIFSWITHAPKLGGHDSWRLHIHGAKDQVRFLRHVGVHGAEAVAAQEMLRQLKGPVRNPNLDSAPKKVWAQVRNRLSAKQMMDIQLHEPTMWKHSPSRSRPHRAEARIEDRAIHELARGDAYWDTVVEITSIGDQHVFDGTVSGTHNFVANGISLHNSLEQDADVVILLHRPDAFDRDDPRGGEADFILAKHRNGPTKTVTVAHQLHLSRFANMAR

[4] = target: T3, DNA repair protein RAD52 homolog (Homo sapiens, UniProt P43351); type: functional, biochemical
T3 sequence (P43351 whole entry): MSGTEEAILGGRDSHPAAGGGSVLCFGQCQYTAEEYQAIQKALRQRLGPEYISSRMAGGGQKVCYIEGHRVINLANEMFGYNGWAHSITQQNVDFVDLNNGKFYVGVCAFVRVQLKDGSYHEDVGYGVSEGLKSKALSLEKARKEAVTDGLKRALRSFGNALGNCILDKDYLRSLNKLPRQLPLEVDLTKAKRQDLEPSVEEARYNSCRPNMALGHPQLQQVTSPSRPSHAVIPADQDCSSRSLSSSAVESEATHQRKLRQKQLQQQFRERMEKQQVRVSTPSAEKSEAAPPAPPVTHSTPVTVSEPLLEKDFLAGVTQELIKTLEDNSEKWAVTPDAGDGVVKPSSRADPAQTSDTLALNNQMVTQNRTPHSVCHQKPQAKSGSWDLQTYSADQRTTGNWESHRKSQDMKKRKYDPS

[5] = target: Heat shock protein HSP 90-alpha (Homo sapiens, UniProt P07900); type: functional, organism-based
[6] = target: Induced myeloid leukemia cell differentiation protein Mcl-1 (Homo sapiens, UniProt Q07820); type: functional
[7] = target: Eukaryotic translation initiation factor 4E (Mus musculus, UniProt P63073); assay: eIF4E–eIF4G protein interaction inhibitors, dose response, biochemical, TR-FRET (AID 855); type: functional;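 note: potency for disrupting eIF4E binding to eIF4GI seen as loss of FRET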
[8] = target: T4, Small ubiquitin-related modifier 1 (Homo sapiens, UniProt P63165); assay: inhibitors of SUMO1 peptide binding, dose response, biochemical, fluorescence polarization, uHTS hits (AID 624382); type: functional; settings: read-out: IC50_Mean
[9] = growth suppression of PTEN-null colon cells, dose response, cell-based, HCT116 PTEN knockout (AID 1047); type: functional;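 note: HCT116 colon tumor cells with PTEN knocked out; cells exposed to compound for 60 hours before readout; potency for loss of cell viability measured by luminescence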
[10] = target: T4, Small ubiquitin-related modifier 1; assay: inhibitors of SUMO1 partner interactions, dose response, biochemical, FRET (AID 624383); type: functional; settings: read-out: IC50_Mean
[11] = growth suppression of beta-catenin-knockout colon cells, dose response, cell-based, HCT116, human colon tumor (AID 1045); type: functional;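 note: HCT116 colon tumor cells with beta catenin knocked out; cells exposed to compound for 60 hours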
[12] = target: Intestinal-type alkaline phosphatase (Homo sapiens, UniProt P09923); assay: Dose Response confirmation of uHTS hits from a small molecule inhibitors of human intestinal alkaline phosphatase via a luminescent assay. [Related pubchem assays (depositor defined):AID2544, AID2574]; type: functional
[13] = target: Large T antigen (Simian virus 40, UniProt P03070); type: functional, Betapolyomavirus macacae;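 note: Confirmatory-stage PubChem screen for compounds that inhibit SV40 T antigen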
[14] = target: Glucose-6-phosphate 1-dehydrogenase (Homo sapiens, UniProt P11413); assay: human G6PD enzyme inhibitors, dose response, selectivity assay for P. falciparum G6PD inhibitor project, biochemical, fluorescence (AID 504792); type: functional
[15] = target: T5, Streptokinase A (Streptococcus pyogenes serotype M1, UniProt P10520); assay: S. pyogenes streptokinase expression inhibitors, potency, dose response, plasminogen activation absorbance, OD405 (AID 1914); type: functional, Streptococcus pyogenes M1 GAS;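 note: secreted streptokinase activity via plasminogen activation per viability signal from cell pellet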
T5 sequence (P10520 whole entry): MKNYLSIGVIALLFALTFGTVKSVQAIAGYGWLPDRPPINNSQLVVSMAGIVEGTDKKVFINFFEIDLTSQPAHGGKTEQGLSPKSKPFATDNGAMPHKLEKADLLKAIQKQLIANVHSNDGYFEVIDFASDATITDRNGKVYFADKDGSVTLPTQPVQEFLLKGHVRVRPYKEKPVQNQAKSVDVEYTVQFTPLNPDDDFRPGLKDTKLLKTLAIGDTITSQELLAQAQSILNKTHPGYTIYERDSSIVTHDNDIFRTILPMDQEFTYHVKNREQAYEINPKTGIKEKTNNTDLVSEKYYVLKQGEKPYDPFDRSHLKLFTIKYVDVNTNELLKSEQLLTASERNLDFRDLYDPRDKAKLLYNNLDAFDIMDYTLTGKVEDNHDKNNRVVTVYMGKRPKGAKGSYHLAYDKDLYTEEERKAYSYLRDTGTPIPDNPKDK

[16] = target: T6, Polyadenylate-binding protein 1 (Homo sapiens, UniProt P11940); assay: PABP1 MLLE–PAM2 binding inhibitor potency, dose response, biochemical, fluorescence polarization, FITC-PAM2 peptide (AID 602259); type: functional; settings: read-out: IC50_Mean
[17] = target: DNA dC->dU-editing enzyme APOBEC-3G (Homo sapiens, UniProt Q9HC16); assay: Dose Response confirmation of small molecule APOBEC3G DNA Deaminase Inhibitors via a fluorescence-based single-stranded DNA deaminase assay. [Related pubchem assays (depositor defined):AID493012, AID493028]; type: functional
[18] = tested on: Streptococcus sp. 'group A'; assay: growth inhibition of control SK(-) GAS strain, dose response, counter-screen for streptokinase expression inhibitor project, luminescence, kanamycin, BacTiterGlo, confirmation (AID 1900); type: functional, organism-based
[19] = tested on: Streptococcus; assay: Group A Streptococcus viability loss, dose response, counter-screen for streptokinase expression inhibitor project, luminescence, BacTiterGlo (AID 1915); type: functional, organism-based;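 note: potency for reduction of bacterial viability or growth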
[20] = target: T7, Mannose-6-phosphate isomerase (Homo sapiens, UniProt P34949); assay: PMI enzyme inhibitors, confirmation, biochemical, fluorescence intensity (AID 1535)
T7 sequence (P34949 whole entry): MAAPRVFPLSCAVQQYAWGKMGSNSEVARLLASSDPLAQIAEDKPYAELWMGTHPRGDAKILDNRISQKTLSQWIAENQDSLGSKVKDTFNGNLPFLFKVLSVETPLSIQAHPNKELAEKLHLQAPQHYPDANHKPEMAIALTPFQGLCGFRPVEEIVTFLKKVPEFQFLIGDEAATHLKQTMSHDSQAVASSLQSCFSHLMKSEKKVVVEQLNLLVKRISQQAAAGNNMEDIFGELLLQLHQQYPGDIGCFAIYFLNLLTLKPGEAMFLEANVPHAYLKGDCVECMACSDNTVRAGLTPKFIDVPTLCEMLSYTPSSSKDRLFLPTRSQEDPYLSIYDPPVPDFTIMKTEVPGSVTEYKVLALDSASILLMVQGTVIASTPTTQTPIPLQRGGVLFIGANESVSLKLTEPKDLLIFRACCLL

[21] = target: T7, Mannose-6-phosphate isomerase; assay: human PMI inhibitors, high substrate, primary screen, biochemical, fluorescence intensity, high mannose 6-phosphate (AID 1220)
[22] = target: T7, Mannose-6-phosphate isomerase; assay: inhibitors of human PMI, primary screen, biochemical, fluorescence intensity, coupled assay (AID 1209)
[23] = target: T6, Polyadenylate-binding protein 1; assay: PABP1 MLLE–PAM2 interaction inhibitors, dose response, miRNA deadenylation inhibitor project, biochemical, fluorescence polarization, Cy5-PAM2 peptide, secondary (AID 602260); type: functional; settings: read-out: IC50_Mean
[24] = target: DNA dC->dU-editing enzyme APOBEC-3A (Homo sapiens, UniProt P31941); assay: APOBEC3A DNA deaminase inhibitors, dose response, biochemical (AID 504722); type: functional
[25] = target: T8, Phosphomannomutase 2 (Homo sapiens, UniProt O15305); assay: Counter screen SAR assay for PMM2 inhibitors via a fluorescence intensity assay. [Related pubchem assays (depositor defined):AID1545, AID1574]
T8 sequence (O15305 whole entry): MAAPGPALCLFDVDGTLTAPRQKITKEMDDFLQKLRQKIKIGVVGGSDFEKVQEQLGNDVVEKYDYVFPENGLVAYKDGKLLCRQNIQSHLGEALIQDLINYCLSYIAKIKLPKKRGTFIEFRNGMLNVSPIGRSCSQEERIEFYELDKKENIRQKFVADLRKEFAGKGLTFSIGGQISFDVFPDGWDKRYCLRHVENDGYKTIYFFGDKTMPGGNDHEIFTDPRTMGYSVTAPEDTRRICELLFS

[26] = target: Phosphoethanolamine/phosphocholine phosphatase (Homo sapiens, UniProt Q8TCT1); assay: SAR assay for compounds that inhibit PHOSPHO1. [Related pubchem assays (depositor defined):AID1545, AID1565, AID1574]
Chain of Phosphoethanolamine/phosphocholine phosphatase (Q8TCT1 whole entry): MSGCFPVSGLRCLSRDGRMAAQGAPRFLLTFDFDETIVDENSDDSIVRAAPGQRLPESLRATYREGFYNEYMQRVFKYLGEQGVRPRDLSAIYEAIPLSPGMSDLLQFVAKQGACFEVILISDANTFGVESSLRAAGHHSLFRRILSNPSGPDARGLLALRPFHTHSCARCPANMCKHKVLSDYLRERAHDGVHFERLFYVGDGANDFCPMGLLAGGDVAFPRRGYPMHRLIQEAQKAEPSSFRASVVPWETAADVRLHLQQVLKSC

T6 sequence (P11940 whole entry): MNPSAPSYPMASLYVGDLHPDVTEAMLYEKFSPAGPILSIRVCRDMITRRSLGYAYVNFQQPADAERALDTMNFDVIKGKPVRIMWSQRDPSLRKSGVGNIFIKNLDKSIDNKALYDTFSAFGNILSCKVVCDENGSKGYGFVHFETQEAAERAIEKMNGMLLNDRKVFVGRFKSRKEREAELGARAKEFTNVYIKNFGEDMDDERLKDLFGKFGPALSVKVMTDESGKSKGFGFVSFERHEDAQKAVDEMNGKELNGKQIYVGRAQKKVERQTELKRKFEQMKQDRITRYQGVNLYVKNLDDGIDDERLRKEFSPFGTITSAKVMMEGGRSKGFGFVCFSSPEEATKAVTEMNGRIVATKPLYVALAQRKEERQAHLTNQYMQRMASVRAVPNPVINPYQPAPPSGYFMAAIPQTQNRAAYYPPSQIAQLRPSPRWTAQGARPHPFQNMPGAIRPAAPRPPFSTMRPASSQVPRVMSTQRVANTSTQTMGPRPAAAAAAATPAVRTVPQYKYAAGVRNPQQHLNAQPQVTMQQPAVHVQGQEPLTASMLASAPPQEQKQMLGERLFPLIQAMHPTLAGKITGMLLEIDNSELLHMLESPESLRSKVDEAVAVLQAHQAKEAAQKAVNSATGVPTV
Chain of Intestinal-type alkaline phosphatase (P09923 whole entry): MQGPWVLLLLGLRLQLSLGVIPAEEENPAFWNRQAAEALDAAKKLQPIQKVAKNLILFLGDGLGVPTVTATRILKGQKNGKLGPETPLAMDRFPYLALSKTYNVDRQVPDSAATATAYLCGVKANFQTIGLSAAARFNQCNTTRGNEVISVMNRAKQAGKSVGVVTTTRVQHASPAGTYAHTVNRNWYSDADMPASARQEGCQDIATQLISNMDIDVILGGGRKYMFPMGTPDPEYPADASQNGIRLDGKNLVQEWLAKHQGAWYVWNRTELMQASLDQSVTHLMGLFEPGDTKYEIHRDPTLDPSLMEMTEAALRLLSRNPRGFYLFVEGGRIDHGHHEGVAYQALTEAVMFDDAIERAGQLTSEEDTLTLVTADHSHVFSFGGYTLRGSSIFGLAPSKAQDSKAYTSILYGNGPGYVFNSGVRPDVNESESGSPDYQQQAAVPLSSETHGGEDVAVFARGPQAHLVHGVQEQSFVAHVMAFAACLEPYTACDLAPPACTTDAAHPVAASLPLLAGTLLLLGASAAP
Chain of Eukaryotic translation initiation factor 4E (P63073 whole entry): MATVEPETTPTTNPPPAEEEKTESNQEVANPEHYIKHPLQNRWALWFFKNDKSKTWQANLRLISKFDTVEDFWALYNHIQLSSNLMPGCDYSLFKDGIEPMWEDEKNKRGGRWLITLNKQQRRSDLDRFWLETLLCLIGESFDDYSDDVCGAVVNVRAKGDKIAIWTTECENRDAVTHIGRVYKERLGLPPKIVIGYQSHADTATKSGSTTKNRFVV
T4 sequence (P63165 whole entry): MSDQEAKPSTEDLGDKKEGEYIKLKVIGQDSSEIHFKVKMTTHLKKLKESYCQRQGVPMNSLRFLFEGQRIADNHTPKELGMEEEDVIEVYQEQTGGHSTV
Chain of X-box-binding protein 1 (P17861 whole entry): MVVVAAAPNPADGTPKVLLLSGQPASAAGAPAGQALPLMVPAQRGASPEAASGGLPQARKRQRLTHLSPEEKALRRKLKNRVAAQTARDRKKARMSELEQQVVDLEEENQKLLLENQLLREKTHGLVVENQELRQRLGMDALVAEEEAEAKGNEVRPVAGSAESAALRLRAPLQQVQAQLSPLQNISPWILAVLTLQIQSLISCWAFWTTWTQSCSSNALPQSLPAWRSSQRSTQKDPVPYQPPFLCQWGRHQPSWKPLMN
Chain of Large T antigen (P03070 whole entry): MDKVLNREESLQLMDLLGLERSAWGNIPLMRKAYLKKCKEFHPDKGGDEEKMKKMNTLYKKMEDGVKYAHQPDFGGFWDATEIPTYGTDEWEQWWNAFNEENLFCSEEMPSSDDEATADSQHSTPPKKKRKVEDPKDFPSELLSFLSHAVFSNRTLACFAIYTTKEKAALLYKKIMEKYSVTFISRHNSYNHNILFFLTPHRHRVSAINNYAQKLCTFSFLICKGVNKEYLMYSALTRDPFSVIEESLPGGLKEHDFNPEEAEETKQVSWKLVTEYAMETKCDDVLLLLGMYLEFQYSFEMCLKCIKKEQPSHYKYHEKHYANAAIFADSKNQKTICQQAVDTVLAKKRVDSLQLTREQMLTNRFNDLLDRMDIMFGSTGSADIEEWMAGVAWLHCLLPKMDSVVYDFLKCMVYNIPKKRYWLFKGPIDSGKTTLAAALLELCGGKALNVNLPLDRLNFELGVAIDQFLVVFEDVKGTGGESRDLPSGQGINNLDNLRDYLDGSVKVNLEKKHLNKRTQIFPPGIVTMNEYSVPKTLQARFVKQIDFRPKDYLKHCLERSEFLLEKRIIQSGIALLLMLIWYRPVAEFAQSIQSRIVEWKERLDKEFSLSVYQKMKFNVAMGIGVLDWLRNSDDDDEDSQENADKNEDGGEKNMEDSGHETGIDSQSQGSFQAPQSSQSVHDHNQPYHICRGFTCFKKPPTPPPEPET
Chain of DNA dC->dU-editing enzyme APOBEC-3A (P31941 whole entry): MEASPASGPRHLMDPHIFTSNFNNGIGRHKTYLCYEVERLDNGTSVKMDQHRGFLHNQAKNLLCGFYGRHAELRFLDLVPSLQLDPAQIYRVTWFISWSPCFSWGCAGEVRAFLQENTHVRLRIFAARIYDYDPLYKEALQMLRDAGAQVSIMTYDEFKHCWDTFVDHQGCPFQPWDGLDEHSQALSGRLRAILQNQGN
Chain of DNA dC->dU-editing enzyme APOBEC-3G (Q9HC16 whole entry): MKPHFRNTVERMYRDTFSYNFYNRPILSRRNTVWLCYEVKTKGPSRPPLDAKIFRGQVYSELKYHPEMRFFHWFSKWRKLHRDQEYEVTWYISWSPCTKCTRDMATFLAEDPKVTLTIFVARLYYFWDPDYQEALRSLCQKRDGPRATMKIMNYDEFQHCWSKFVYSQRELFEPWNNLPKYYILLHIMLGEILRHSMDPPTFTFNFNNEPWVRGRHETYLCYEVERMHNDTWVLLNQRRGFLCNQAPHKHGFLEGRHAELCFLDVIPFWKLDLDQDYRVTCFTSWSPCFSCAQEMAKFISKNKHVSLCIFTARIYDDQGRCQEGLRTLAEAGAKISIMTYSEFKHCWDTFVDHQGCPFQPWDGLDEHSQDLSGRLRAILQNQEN
Chain of Glucose-6-phosphate 1-dehydrogenase (P11413 whole entry): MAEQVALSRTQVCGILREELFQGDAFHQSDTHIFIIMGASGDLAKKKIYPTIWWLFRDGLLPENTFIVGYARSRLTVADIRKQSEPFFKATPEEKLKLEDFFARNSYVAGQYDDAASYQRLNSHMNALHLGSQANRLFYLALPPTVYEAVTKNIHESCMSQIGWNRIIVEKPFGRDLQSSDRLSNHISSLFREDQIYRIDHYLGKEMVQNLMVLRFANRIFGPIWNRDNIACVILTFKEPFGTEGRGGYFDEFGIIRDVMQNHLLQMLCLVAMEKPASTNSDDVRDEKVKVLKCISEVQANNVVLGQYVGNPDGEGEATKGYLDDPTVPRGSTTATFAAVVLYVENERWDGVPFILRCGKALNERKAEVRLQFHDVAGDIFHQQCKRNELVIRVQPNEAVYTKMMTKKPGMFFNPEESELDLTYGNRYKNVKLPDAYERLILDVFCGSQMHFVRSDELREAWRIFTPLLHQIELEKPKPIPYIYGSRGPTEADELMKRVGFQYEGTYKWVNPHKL
Chain of Induced myeloid leukemia cell differentiation protein Mcl-1 (Q07820 whole entry): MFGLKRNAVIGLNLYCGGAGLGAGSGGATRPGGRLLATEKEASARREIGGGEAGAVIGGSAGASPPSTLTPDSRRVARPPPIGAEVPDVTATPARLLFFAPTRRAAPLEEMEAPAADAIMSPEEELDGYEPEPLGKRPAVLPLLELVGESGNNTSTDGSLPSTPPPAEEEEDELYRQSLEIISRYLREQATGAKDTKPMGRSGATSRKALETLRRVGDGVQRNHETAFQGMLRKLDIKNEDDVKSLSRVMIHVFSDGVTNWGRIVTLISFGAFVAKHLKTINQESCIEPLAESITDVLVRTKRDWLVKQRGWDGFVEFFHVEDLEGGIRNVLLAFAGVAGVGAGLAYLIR

CC1=NN(c2ccccc2)C(=O)/C1=C/c1cc2ccccc2[nH]1
Absolute IC50 (XBP1) [1]: 10 µM | EC50 [2]: 10.9 µM (active) | AC50 [3]: 19.2 µM (active)

CCCCCCCCCCCCCCCC[n+]1cccc2ccccc21
AC50 [4]: 3.67 µM (active) | AC50 [5]: 2.87 µM (active) | IC50 [6]: 4.32 µM (active) | IC50 [7]: 5.71 µM (active) | IC50 [8]: > 66.6 µM (inactive) | EC50 [9]: 0.295 µM (active) | IC50 [10]: 8.86 µM (active) | EC50 [11]: 0.17 µM (active)

Cc1cc(NC(=O)c2ccc(N3C(=O)C4C5C=CC(C5)C4C3=O)cc2)no1 (configuration not stated)
IC50 [12]: > 100 µM (inactive)

O=C(Cn1sc2ccccc2c1=O)NC12CC3CC(CC(C3)C1)C2
IC50 [13]: 14 µM (active) | IC50 [14]: 13.5 µM (active) | EC50 [15]: > 150 µM (not active) | IC50 [16]: > 66 µM (inactive) | IC50 [7]: > 64 µM (inactive) | IC50 [17]: 6.94 µM (active) | EC50 [18]: 0.637 µM (active) | EC50 [9]: 30.2 µM (active) | EC50 [19]: 7.2 µM (active) | IC50 [20]: > 50 µM (inactive) | IC50 [21]: > 50 µM (not active) | IC50 [22]: > 50 µM (not active) | IC50 [23]: > 66 µM (inactive) | IC50 [24]: > 100 µM (inactive) | EC50 [11]: 22.4 µM (active) | IC50 [25]: > 100 µM (inactive)

O=C(CSc1nc(-c2cccs2)cc(C(F)(F)F)n1)NCc1ccccc1
IC50 [12]: > 100 µM (inactive)

O=c1c2ccc(F)cc2sn1-c1cc(Cl)cc(Cl)c1
IC50 [20]: > 50 µM (inactive) | IC50 [26]: > 100 µM (inactive) | IC50 [25]: > 100 µM (inactive)
